Results published in patent US5668161A, “Substituted thiazoles for the treatment of inflammation” (G.D. Searle & Co., priority 1996, dated 1997).

Legend:
murine COX-I = target: T1, murine COX-I (Mus musculus, UniProt P22437); assay: COX I activity in vitro, murine (PGE2 by ELISA)
T1 sequence (P22437 27-602): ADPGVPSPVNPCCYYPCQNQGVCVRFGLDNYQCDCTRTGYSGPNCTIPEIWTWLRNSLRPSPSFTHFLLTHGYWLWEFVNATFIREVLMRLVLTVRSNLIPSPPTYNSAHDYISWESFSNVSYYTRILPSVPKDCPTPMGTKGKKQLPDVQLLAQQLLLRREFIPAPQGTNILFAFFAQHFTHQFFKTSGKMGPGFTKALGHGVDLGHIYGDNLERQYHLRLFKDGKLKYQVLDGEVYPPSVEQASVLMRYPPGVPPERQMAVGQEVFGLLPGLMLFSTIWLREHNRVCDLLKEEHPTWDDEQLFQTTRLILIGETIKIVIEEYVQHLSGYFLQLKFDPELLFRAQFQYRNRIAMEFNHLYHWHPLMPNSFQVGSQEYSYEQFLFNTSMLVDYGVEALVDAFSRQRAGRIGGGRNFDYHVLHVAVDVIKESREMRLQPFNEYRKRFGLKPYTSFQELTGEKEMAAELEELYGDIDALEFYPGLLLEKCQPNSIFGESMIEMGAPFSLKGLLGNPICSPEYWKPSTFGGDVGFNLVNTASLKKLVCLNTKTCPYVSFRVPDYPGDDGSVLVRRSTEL

murine COX-II = target: T2, murine COX-II (Mus musculus, UniProt Q05769); assay: biochemical
T2 sequence (Q05769 18-604): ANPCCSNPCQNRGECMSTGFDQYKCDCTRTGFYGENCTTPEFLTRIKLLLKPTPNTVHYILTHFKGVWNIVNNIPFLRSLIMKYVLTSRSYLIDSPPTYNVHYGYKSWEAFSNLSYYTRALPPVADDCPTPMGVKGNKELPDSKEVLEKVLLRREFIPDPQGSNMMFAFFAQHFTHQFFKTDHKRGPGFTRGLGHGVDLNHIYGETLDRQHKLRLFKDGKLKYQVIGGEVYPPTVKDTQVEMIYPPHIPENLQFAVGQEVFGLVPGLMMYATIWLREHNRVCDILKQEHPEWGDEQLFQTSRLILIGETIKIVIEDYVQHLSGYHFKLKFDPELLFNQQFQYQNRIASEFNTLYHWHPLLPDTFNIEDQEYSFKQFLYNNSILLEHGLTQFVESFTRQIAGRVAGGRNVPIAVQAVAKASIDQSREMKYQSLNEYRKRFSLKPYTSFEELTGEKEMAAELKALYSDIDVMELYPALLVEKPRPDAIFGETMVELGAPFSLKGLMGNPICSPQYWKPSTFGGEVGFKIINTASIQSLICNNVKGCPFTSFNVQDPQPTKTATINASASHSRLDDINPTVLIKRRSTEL

carrageenan foot edema = assay: Rat Carrageenan Foot Pad Edema Test; type: in vivo, rat (Male Sprague-Dawley); details: oral, 3 hours after carrageenan, read-out: RAT PAW EDEMA % Inhibition; for inhibition at 20 mg/kg: @ 20 mg/kg body weight
Procedure: Male Sprague-Dawley rats were selected in each group so that the average body weight was as close as possible. Rats were fasted with free access to water for over sixteen hours prior to the test. […] One hour later a subplantar injection of 0.1 mL of 1% solution of carrageenan/sterile 0.9% saline was administered and the volume of the injected foot was measured with a displacement plethysmometer connected to a pressure transducer with a digital indicator. Three hours after the injection of the carrageenan, the volume of the foot was again measured. […] Rat Carrageenan-induced Analgesia Test

| SMILES | IC50 (murine COX-I) [µM] | IC50 (murine COX-II) [nM] | inhibition at 20 mg/kg (carrageenan foot edema) [%] | inhibition at 10 mg/kg (carrageenan foot edema) [%] |
| --- | --- | --- | --- | --- |
| CS(=O)(=O)c1ccc(-c2scnc2-c2ccc(F)cc2)cc1 [Example 22, 4-(4-Fluorophenyl)-5-(4-methylsulfonylphenyl)thiazole] | > 100 | 11200 | – | – |
| CS(=O)(=O)c1ccc(-c2sc(CS(=O)(=O)c3cccs3)nc2-c2ccc(F)cc2)cc1 [Example 13] | > 30 | 1200 | – | – |
| CS(=O)(=O)c1ccc(-c2sc(CC#N)nc2-c2ccc(F)cc2)cc1 [Example 27, 2-(Cyanomethyl)-4-(4-fluorophenyl)-5-(4-methylsulfonylphenyl)thiazole] | > 10 | 200 | – | – |
| CCOC(=O)c1ccc(Nc2nc(-c3ccc(F)cc3)c(-c3ccc(S(C)(=O)=O)cc3)s2)cc1 [Example 55, Ethyl [4-[4-(4-fluorophenyl)-5-(4-methylsulfonylphenyl)-2-thiazolyl]amino]benzoate] | > 10 | 3500 | – | – |
| CCc1nc(-c2ccc(F)cc2)c(-c2ccc(S(C)(=O)=O)cc2)s1 [Example 42, 2-Ethyl-4-(4-fluorophenyl)-5-(4-methylsulfonylphenyl)thiazole] | 1.9 | < 100 | – | – |
| Cc1nc(-c2nc(-c3ccc(F)cc3)c(-c3ccc(S(C)(=O)=O)cc3)s2)cs1 [Example 39, 4-(4-Fluorophenyl)-5-[4-(methylsulfonyl)phenyl]-2-(2-methyl-4-thiazolyl)thiazole] | > 10 | 300 | 19 | – |
| CS(=O)(=O)c1ccc(-c2sc(CCCc3ccccc3)nc2-c2ccc(F)cc2)cc1 [Example 43, 4-(4-Fluorophenyl)-5-(4-methylsulfonylphenyl)-2-(3-phenylpropyl)thiazole] | 100 | 1300 | – | – |
| CCOC(=O)c1cccc(Nc2nc(-c3ccc(F)cc3)c(-c3ccc(S(C)(=O)=O)cc3)s2)c1 [Example 54, Ethyl-[3-[4-(4-fluorophenyl)-5-(4-methylsulfonylphenyl)-2-thiazolyl]amino]benzoate] | 1.1 | 1300 | – | – |
| CS(=O)(=O)c1ccc(-c2sc(-c3ccccc3)nc2-c2ccc(F)cc2)cc1 [Example 45, 4-(4-Fluorophenyl)-5-(4-methylsulfonylphenyl)-2-phenylthiazole] | > 100 | < 100 | – | 19 |
| CS(=O)(=O)c1ccc(-c2sc(Nc3ccc(C#N)cc3)nc2-c2ccc(F)cc2)cc1 [Example 53, 2-(4-Cyanophenylamino)-4-(4-fluorophenyl)-5-(4-methylsulfonylphenyl)-thiazole] | 0.2 | 900 | – | – |
| CCCNc1nc(-c2ccc(F)cc2)c(-c2ccc(S(C)(=O)=O)cc2)s1 [Example 31, 4-(4-Fluorophenyl)-5-(4-methylsulfonylphenyl)-2-(1-propylamino)thiazole] | > 10 | 100 | – | 27.5 |
| CC(C)(C)Nc1nc(-c2ccc(F)cc2)c(-c2ccc(S(C)(=O)=O)cc2)s1 [Example 51, 2-tert-Butylamino-4-(4-fluorophenyl)-5-(4-methylsulfonylphenyl)thiazole] | 11.9 | 300 | – | 14 |
| CS(=O)(=O)c1ccc(-c2sc(-c3ccccc3Cl)nc2-c2ccccc2F)cc1 [Example 35, 2-(2-Chlorophenyl)-4-(2-fluorophenyl)-5-(4-methylsulfonylphenyl)thiazole] | > 100 | – | 16 | – |
| Cc1nc(-c2ccc(F)cc2)c(-c2ccc(S(C)(=O)=O)cc2)s1 [Example 28, 4-(4-Fluorophenyl)-5-(4-methylsulfonylphenyl)-2-methylthiazole] | > 10 | < 100 | – | – |
| CS(=O)(=O)c1ccc(-c2sc(Cc3ccccc3)nc2-c2ccc(F)cc2)cc1 [Example 19, 2-Benzyl-4-(4-fluorophenyl)-5-(4-methylsulfonylphenyl)thiazole] | 0.4 | – | – | – |
| CS(=O)(=O)c1ccc(-c2sc(N3CCCCC3)nc2-c2ccc(F)cc2)cc1 [Example 30, 4-(4-Fluorophenyl)-5-(4-methylsulfonylphenyl)-2-(1-piperidinyl)thiazole] | 0.9 | 300 | – | – |
| CCNc1nc(-c2ccc(F)cc2)c(-c2ccc(S(C)(=O)=O)cc2)s1 [Example 50, 2-Ethylamino-4-(4-fluorophenyl)-5-(4-methylsulfonylphenyl)-thiazole] | > 10 | 300 | – | 11 |
| CS(=O)(=O)c1ccc(-c2sc(-c3cccnc3)nc2-c2ccc(F)cc2)cc1 [Example 26, 4-(4-Fluorophenyl)-5-(4-methylsulfonylphenyl)-2-(3-pyridyl)thiazole] | > 100 | – | – | – |
| CC(C)(C)c1nc(-c2ccc(F)cc2)c(-c2ccc(S(C)(=O)=O)cc2)s1 [Example 18, 2-(tert-Butyl)-4-(4-fluorophenyl)-5-(4-methylsulfonylphenyl)thiazole] | 5.4 | 150 | – | – |
| CCOC(=O)c1nc(-c2ccc(F)cc2)c(-c2ccc(S(C)(=O)=O)cc2)s1 [Example 17, Ethyl [4-(4-fluorophenyl)-5-(4-methylsulfonylphenyl)-2-thiazolyl]carboxylate] | > 10 | 300 | – | – |
| Cc1nc(-c2ccc(S(C)(=O)=O)cc2)c(-c2ccc(F)cc2)s1 [Example 20, 5-(4-Fluorophenyl)-4-(4-methylsulfonylphenyl)-2-methylthiazole] | > 10 | 100 | 48 | – |
| COc1ccc(-c2nc(-c3ccc(F)cc3)c(-c3ccc(S(C)(=O)=O)cc3)s2)cc1 [Example 49, 4-(4-Fluorophenyl)-5-(4-methylsulfonylphenyl)-2-(4-methoxyphenyl)thiazole] | > 10 | 300 | – | 6 |
| CNc1nc(-c2ccc(F)cc2)c(-c2ccc(S(C)(=O)=O)cc2)s1 [Example 48, 4-(4-Fluorophenyl)-5-(4-methylsulfonylphenyl)-2-methylaminothiazole] | > 10 | 300 | – | 15 |
| CCCCCCNc1nc(-c2ccc(F)cc2)c(-c2ccc(S(C)(=O)=O)cc2)s1 [Example 46, 4-(4-Fluorophenyl)-2-n-hexylamino-5-(4-methylsulfonylphenyl)thiazole] | 1.4 | < 100 | – | 25 |
| CS(=O)(=O)c1ccc(-c2sc(CCc3ccccc3)nc2-c2ccc(F)cc2)cc1 [Example 44, 4-(4-Fluorophenyl)-5-(4-methylsulfonylphenyl)-2-(2-phenylethyl)thiazole] | 1.7 | – | – | – |
| CS(=O)(=O)c1ccc(-c2sc(COc3cccc(Cl)c3)nc2-c2ccc(F)cc2)cc1 [Example 37, 2-((3-Chlorophenoxy)methyl)-4-(4-fluorophenyl)-5-(4-methylsulfonylphenyl)thiazole] | > 100 | < 100 | 9 | – |
| CS(=O)(=O)c1ccc(-c2sc(-c3cccs3)nc2-c2ccc(F)cc2)cc1 [Example 24, 4-(4-Fluorophenyl)-5-(4-methylsulfonylphenyl)-2-(2-thienyl)thiazole] | > 10 | < 100 | – | 20 |
| CS(=O)(=O)c1ccc(-c2sc(-c3ccncc3)nc2-c2ccc(F)cc2)cc1 [Example 8, 4-(4-Fluorophenyl)-5-(4-methylsulfonylphenyl)-2-(4-pyridyl)thiazole] | > 100 | 200 | 12 | – |
| CS(=O)(=O)c1ccc(-c2sc(Nc3cc(Cl)cc(Cl)c3)nc2-c2ccc(F)cc2)cc1 [Example 52, 2-(3,5-Dichlorophenylamino)-4-(4-fluorophenyl)-5-(4-methylsulfonylphenyl)thiazole] | > 100 | 500 | – | 7 |
